Experiment [1] deals with Mycobacterium tuberculosis. Put plainly: Antimycobacterial activity against rifampicin-resistant Mycobacterium tuberculosis. Type of experiment: functional.
In experiment [2] the test system is Mycobacterium tuberculosis. Description: Antimycobacterial activity against isoniazid-resistant Mycobacterium tuberculosis. The format is functional.

The record followed here is ChEMBL document CHEMBL3351459, “Present status of quinoxaline motifs: excellent pathfinders in therapeutic medicine” (Eur J Med Chem, 2014).

The MIC is the lowest concentration that inhibits growth of the organism. Lower therefore signals a more susceptible organism.

Values after ≈ are worked out from the molar mass of the structure shown.

Take `CC(=O)c1c(C)[n+]([O-])c2ccc(Cl)cc2[n+]1[O-]`: the MIC in experiment [1] is no more than 0.39 µg/mL; in experiment [2], 1.56 µg/mL (≈ 6.17 µM).
